Results from ChEMBL document CHEMBL1123432, “Methotrexate analogues. 28. Synthesis and biological evaluation of new gamma-monoamides of aminopterin and methotrexate” (J Med Chem, 1986).
Values joined by “and” are separate entries in the source; they are usually repeats but may differ in a detail not shown here. Equal values may be shown once.

Assays:
[1] = species on record: Homo sapiens; assay: Compound was tested for its inhibitory concentration against human leukemic lymphoblasts (CEM Cells) and a resistant subline (CEM / MTX).; assay type: functional; settings: CCRF-CEM
[2] = species on record: Homo sapiens; assay: Compound was tested for its inhibitory concentration against human leukemic lymphoblasts (CEM Cells).; assay type: functional; settings: CCRF-CEM
[3] = test system: L1210; assay: Compound was tested for its inhibitory concentration to inhibit the growth of wild type L1210 cells and a subline (L1210 / R81).; assay type: functional, cell-based; settings: Mus musculus
[4] = test system: L1210; assay: Compound was tested for its inhibitory concentration to inhibit the growth of wild type L1210 cells.; assay type: functional, cell-based, Mus musculus
[5] = test system: Mus musculus; assay: Increase in life span of mice with L1210 leukemia cells at a dose of 80 mg/kg; assay type: functional
[6] = test system: Mus musculus; assay: Increase in life span of mice with L1210 leukemia cells at a dose of 20 mg/kg; assay type: functional
[7] = test system: Mus musculus; assay: Increase in life span of mice with L1210 leukemia cells at a dose of 40 mg/kg; assay type: functional
[8] = test system: Mus musculus; assay: Median Survival days of mice infected with L1210 leukemia cells at dose 20 mg/kg relative to that of 9 days for control; assay type: functional
[9] = test system: Mus musculus; assay: Median Survival days of mice infected with L1210 leukemia cells at dose 40 mg/kg relative to that of 9 days for control; assay type: functional
[10] = test system: Mus musculus; assay: Median Survival days of mice infected with L1210 leukemia cells at dose 80 mg/kg relative to that of 9 days for control; assay type: functional
[11] = target: T1, Dihydrofolate reductase (Mus musculus) (UniProt P00375); settings: L1210
T1 sequence (whole entry): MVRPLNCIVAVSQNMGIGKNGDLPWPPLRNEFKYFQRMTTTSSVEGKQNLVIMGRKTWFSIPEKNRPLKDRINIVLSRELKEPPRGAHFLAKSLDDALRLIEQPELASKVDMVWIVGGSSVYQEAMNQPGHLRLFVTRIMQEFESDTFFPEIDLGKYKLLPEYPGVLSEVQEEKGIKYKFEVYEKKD
Description: Compound was tested for inhibition of the enzyme DiHydroFolate Reductase (DHFR) from murine L1210 leukemia cells

[12] = target: T2, Dihydrofolate reductase (Mus musculus, UniProt P00375); assay: biochemical
T2 sequence (P00375 whole entry): T1 sequence (whole entry)
Description: Compound was tested for its inhibitory concentration to inhibit the enzyme Dihydro Folate Reductase (DHFR) from murine L1210 leukemia cells.

[13] = species on record: Mus musculus; assay: Compound was tested against weight change in mice with L1210 leukemia cells on 10 th Day at Dose 80 mg / kg; settings: at 80 mg/kg
[14] = test system: L1210; assay: Compound was tested for its inhibitory concentration to inhibit the growth of wild type L1210 cells; Mean of four separate assays; assay type: functional, cell-based; settings: Mus musculus
[15] = test system: Mus musculus; assay: Increase in life span of mice with L1210 leukemia cells at a dose of 80 mg/kg in expt 2; assay type: functional
[16] = test system: Mus musculus; assay: Increase in life span of mice with L1210 leukemia cells at a dose of 80 mg/kg in expt 2; Toxic; assay type: functional, organism-based; design: dose 80 mg/kg
[17] = test system: Mus musculus; assay: Increase in life span of mice with L1210 leukemia cells at a dose of 40 mg/kg in expt 2; Toxic; assay type: functional, organism-based; design: dose 40 mg/kg
[18] = test system: Mus musculus; assay: Increase in life span of mice with L1210 leukemia cells at a dose of 10 mg/kg in expt 1; assay type: functional
[19] = test system: Mus musculus; assay: Median Survival days of mice infected with L1210 leukemia cells at dose 80 mg/kg relative to that of 9 days for control in expt 1; Toxic; assay type: functional, organism-based; design: dose 80 mg/kg
[20] = test system: Mus musculus; assay: Median Survival days of mice infected with L1210 leukemia cells at dose 40 mg/kg relative to that of 9 days for control in expt 1; Toxic; assay type: functional, organism-based; design: dose 40 mg/kg
[21] = test system: Mus musculus; assay: Median Survival days of mice infected with L1210 leukemia cells at dose 10 mg/kg relative to that of 9 days for control in expt 1; assay type: functional
[22] = test system: Mus musculus; assay: Median Survival days of mice infected with L1210 leukemia cells at dose 20 mg/kg relative to that of 9 days for control in expt 1; assay type: functional
[23] = species on record: Mus musculus; assay: Compound was tested against weight change in mice with L1210 leukemia cells on 7 th Day at Dose 10 mg / kg; assay type: functional; settings: at 10 mg/kg
[24] = species on record: Mus musculus; assay: Compound was tested against weight change in mice with L1210 leukemia cells on 10 th Day at Dose 20 mg / kg; settings: at 20 mg/kg
[25] = species on record: Mus musculus; assay: Compound was tested against weight change in mice with L1210 leukemia cells on 10 th Day at Dose 40 mg / kg; settings: at 40 mg/kg
[26] = test system: Mus musculus; assay: Increase in life span of mice with L1210 leukemia cells at a dose of 80 mg/kg in exp 1; assay type: functional
[27] = test system: Mus musculus; assay: Increase in life span of mice with L1210 leukemia cells at a dose of 100 mg/kg; assay type: functional
[28] = test system: Mus musculus; assay: Increase in life span of mice with L1210 leukemia cells at a dose of 40 mg/kg in exp 1; assay type: functional
[29] = test system: Mus musculus; assay: Median Survival days of mice infected with L1210 leukemia cells at dose 80 mg/kg relative to that of 9 days for control in expt 2; assay type: functional
[30] = test system: Mus musculus; assay: Median Survival days of mice infected with L1210 leukemia cells at dose 40 mg/kg relative to that of 9 days for control in expt 1; assay type: functional
[31] = test system: Mus musculus; assay: Median Survival days of mice infected with L1210 leukemia cells at dose 100 mg/kg relative to that of 9 days for control in expt 2; assay type: functional
[32] = test system: Mus musculus; assay: Median Survival days of mice infected with L1210 leukemia cells at dose 80 mg/kg relative to that of 9 days for control in expt 1; assay type: functional
[33] = species on record: Mus musculus; assay: Compound was tested against weight change in mice with L1210 leukemia cells on 7 th Day at Dose 100 mg / kg; assay type: functional; settings: at 100 mg/kg
[34] = test system: L1210; assay: Compound was tested for its inhibitory concentration to inhibit the growth of wild type L1210 cells and a subline ( L1210 / R81 ).; assay type: functional, cell-based; settings: Mus musculus
[35] = target: T2, Dihydrofolate reductase; assay: Compound was tested for its inhibitory concentration to inhibit the enzyme Dihydro Folate Reductase ( DHFR ) from murine L1210 leukemia cells.; assay type: cell-based
[36] = species on record: Homo sapiens; assay: Compound was tested for its inhibitory concentration against human leukemic lymphoblasts (CEM Cells); Mean of two assays; assay type: functional; settings: CCRF-CEM
[37] = test system: L1210; assay: Compound was tested for its inhibitory concentration to inhibit the growth of wild type L1210 cells and a subline (L1210 / R81); Mean of two assays; assay type: functional, cell-based; settings: Mus musculus
[38] = test system: L1210; assay: Compound was tested for its inhibitory concentration to inhibit the growth of wild type L1210 cells; assay type: functional, cell-based; settings: Mus musculus

Compound | IC50 [1] [nM] | IC50 [2] [nM] | IC50 [3] [nM] | IC50 ([4]; Mus musculus, L1210) [nM] | IC50 ([4]; l1210) | ILS at 80 mg/kg [5] [%] | ILS at 20 mg/kg [6] [%] | ILS at 40 mg/kg [7] [%] | Survival [8] [days] | Survival [9] [days] | Survival [10] [days] | IC50/[E] [11] | IC50 [12] [nM] | Weight change [13] | Weight change [24] [%] | Weight change [25] [%] | further results
Nc1nc(N)c2nc(CNc3ccc(C(=O)NC(CCC(=O)N[C@]45C[C@H]6C[C@H](C[C@H](C6)C4)C5)C(=O)O)cc3)cnc2n1 (stereo partly drawn) | 16000 | 4500 | 25000 | 680 | 510 nM | 22 | -11 | 0 | 8 | 9 | 10 | 2.5 | 100 | 17% | – | – | –
Nc1nc(N)c2nc(CNc3ccc(C(=O)NC(CCC(=O)Nc4ccc5c(c4)OCO5)C(=O)O)cc3)cnc2n1 (stereo not drawn) | 1000 | 140 | 28000 | 3.2 | – | – | – | – | – | – | – | 1.1 | 45 | -26% | 3 | -20 | IC50 [14]: 0.39 nM; ILS at 80 mg/kg [15]: 33%; ILS [16]: Toxic; ILS [17]: Toxic; ILS at 10 mg/kg [18]: 56%; Survival [19]: Toxic; Survival [20]: Toxic; Survival [21]: 12 days; Survival [22]: 14 days; Weight change [23]: 7%
Nc1nc(N)c2nc(CNc3ccc(C(=O)NC(CCC(=O)NCc4c(Cl)cccc4Cl)C(=O)O)cc3)cnc2n1 (stereo not drawn) | – | – | 61000 | 3.7 | 2 nM | 44 | – | – | – | – | – | 2 | 80 | 3% and 9% | – | 6 | ILS at 80 mg/kg [26]: 44%; ILS at 100 mg/kg [27]: 67%; ILS at 40 mg/kg [28]: 56%; Survival [29]: 13 days; Survival [30]: 13 days; Survival [31]: 15 days; Survival [32]: 14 days; Weight change [33]: -3%
CN(Cc1cnc2nc(N)nc(N)c2n1)c1ccc(C(=O)NC(CCC(=O)Nc2ccc(O)c(O)c2)C(=O)O)cc1 (stereo not drawn) | – | – | – | – | 30 nM and 8.4 nM | – | – | – | – | – | – | – | – | – | – | – | IC50 [34]: 38000 nM; IC50 [35]: 31 nM
CC(C)(C)NC(=O)CCC(NC(=O)c1ccc(NCc2cnc3nc(N)nc(N)c3n2)cc1)C(=O)O (stereo not drawn) | 36000 | – | – | 120 | – | 22 | 0 | 11 | 9 | 10 | 11 | 1.1 | 44 | 9% | 17 | 7 | IC50 [36]: 5800 nM; IC50 [37]: 22000 nM; IC50 [38]: 32 nM
